Measured values taken from ChEMBL document CHEMBL1201862, “PubChem BioAssay data set” (2004).
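Cultured in 96-well plates, cells were exposed to test compound for 48 hours across five concentrations. At the GI50, growth is halved.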 Activity calls are given as the source filed them. No stated cut-off is given here; in the data, active = GI50 up to about 1.1 µM and inactive = higher.

How the values were obtained:
Experiment in all cases: growth of human tumour cells (NCI), 48 h
NCI-H460 = tested on: NCI-H460
Malme-3M = tested on: Malme-3M
A549 = tested on: A549
U-251 = tested on: U-251
HL-60 = tested on: HL-60
OVCAR-3 = tested on: OVCAR-3
HCT-116 = tested on: HCT-116
CCRF-CEM = tested on: CCRF-CEM
SF-295 = tested on: SF-295
HOP-62 = tested on: HOP-62
SNB-75 = tested on: SNB-75
COLO 205 = tested on: COLO 205
KM12 = tested on: KM12
OVCAR-5 = tested on: OVCAR-5
RXF 393 = tested on: RXF 393
OVCAR-4 = tested on: OVCAR-4
SW-620 = tested on: SW-620
KM-20L2 = tested on: KM-20L2
HOP-92 = tested on: HOP-92
M14 = tested on: M14
UO-31 = tested on: UO-31
IGROV-1 = tested on: IGROV-1
786-0 = tested on: 786-0
ACHN = tested on: ACHN
K562 = tested on: K562
SK-MEL-28 = tested on: SK-MEL-28
EKVX = tested on: EKVX
SNB-19 = tested on: SNB-19
M19-MEL = tested on: M19-MEL
HT-29 = tested on: HT-29
NCI-H522 = tested on: NCI-H522
UACC-62 = tested on: UACC-62
LXFL 529 = tested on: LXFL 529
SF-539 = tested on: SF-539
SNB-78 = tested on: SNB-78
MOLT-4 = tested on: MOLT-4
LOX IMVI = tested on: LOX IMVI
HOP-18 = tested on: HOP-18
TK-10 = tested on: TK-10
HCC 2998 = tested on: HCC 2998
HCT-15 = tested on: HCT-15
DMS-273 = tested on: DMS-273
DLD-1 = tested on: DLD-1
SK-OV-3 = tested on: SK-OV-3
A498 = tested on: A498
SK-MEL-2 = tested on: SK-MEL-2
NCI-H23 = tested on: NCI-H23
DMS-114 = tested on: DMS-114
OVCAR-8 = tested on: OVCAR-8
RPMI-8226 = tested on: RPMI-8226
SN12C = tested on: SN12C
SF-268 = tested on: SF-268
UACC-257 = tested on: UACC-257
CAKI-1 = tested on: CAKI-1
NCI-H226 = tested on: NCI-H226
SR = tested on: SR
SK-MEL-5 = tested on: SK-MEL-5

## C=CCNC(=O)ON1C(=O)CCC1=O
NCI-H460
  GI50: > 100 µM (inactive)
Malme-3M
  GI50: > 100 µM (inactive)
A549
  GI50: > 100 µM (inactive)
U-251
  GI50: > 100 µM (inactive)
HL-60
  GI50: > 100 µM (inactive)
OVCAR-3
  GI50: > 100 µM (inactive)
HCT-116
  GI50: > 100 µM (inactive)
CCRF-CEM
  GI50: > 100 µM (inactive)
SF-295
  GI50: > 100 µM (inactive)
HOP-62
  GI50: > 100 µM (inactive)
SNB-75
  GI50: > 100 µM (inactive)
COLO 205
  GI50: > 100 µM (inactive)
KM12
  GI50: > 100 µM (inactive)
OVCAR-5
  GI50: > 100 µM (inactive)
RXF 393
  GI50: > 100 µM (inactive)
OVCAR-4
  GI50: > 100 µM (inactive)
SW-620
  GI50: > 100 µM (inactive)
KM-20L2
  GI50: > 100 µM (inactive)
HOP-92
  GI50: > 100 µM (inactive)
M14
  GI50: > 100 µM (inactive)
UO-31
  GI50: > 100 µM (inactive)
IGROV-1
  GI50: > 100 µM (inactive)
786-0
  GI50: > 100 µM (inactive)
ACHN
  GI50: > 100 µM (inactive)
K562
  GI50: > 100 µM (inactive)
SK-MEL-28
  GI50: > 100 µM (inactive)
EKVX
  GI50: > 100 µM (inactive)
SNB-19
  GI50: > 100 µM (inactive)
M19-MEL
  GI50: > 100 µM (inactive)
HT-29
  GI50: > 100 µM (inactive)
NCI-H522
  GI50: 31.8 µM (inactive)
UACC-62
  GI50: > 100 µM (inactive)
LXFL 529
  GI50: > 100 µM (inactive)
SF-539
  GI50: > 100 µM (inactive)
SNB-78
  GI50: > 100 µM (inactive)
MOLT-4
  GI50: > 100 µM (inactive)
LOX IMVI
  GI50: > 100 µM (inactive)
HOP-18
  GI50: > 100 µM (inactive)
TK-10
  GI50: > 100 µM (inactive)
HCC 2998
  GI50: > 100 µM (inactive)
HCT-15
  GI50: > 100 µM
DMS-273
  GI50: > 100 µM (inactive)
DLD-1
  GI50: > 100 µM (inactive)
SK-OV-3
  GI50: > 100 µM (inactive)
A498
  GI50: > 100 µM (inactive)
SK-MEL-2
  GI50: > 100 µM (inactive)
NCI-H23
  GI50: > 100 µM (inactive)
DMS-114
  GI50: > 100 µM (inactive)
OVCAR-8
  GI50: > 100 µM (inactive)
RPMI-8226
  GI50: > 100 µM (inactive)
SN12C
  GI50: > 100 µM (inactive)
SF-268
  GI50: > 100 µM (inactive)
UACC-257
  GI50: > 100 µM (inactive)

## CCCC(=O)OCC(O)CO (centres undefined)
NCI-H460
  GI50: 4570 µM (inactive)
Malme-3M
  GI50: 3610 µM (inactive)
CAKI-1
  GI50: 2040 µM (inactive)
A549
  GI50: > 5000 µM (inactive)
U-251
  GI50: > 5000 µM (inactive)
HL-60
  GI50: 2920 µM (inactive)
HCT-116
  GI50: > 5000 µM (inactive)
CCRF-CEM
  GI50: 4500 µM (inactive)
SF-295
  GI50: > 5000 µM (inactive)
HOP-62
  GI50: > 5000 µM (inactive)
SNB-75
  GI50: > 5000 µM (inactive)
COLO 205
  GI50: > 5000 µM (inactive)
KM12
  GI50: > 5000 µM (inactive)
OVCAR-5
  GI50: 2810 µM (inactive)
RXF 393
  GI50: 3090 µM (inactive)
OVCAR-4
  GI50: > 5000 µM (inactive)
SW-620
  GI50: > 5000 µM (inactive)
HOP-92
  GI50: 3080 µM (inactive)
M14
  GI50: > 5000 µM (inactive)
NCI-H226
  GI50: > 5000 µM (inactive)
SR
  GI50: > 5000 µM (inactive)
UO-31
  GI50: 2860 µM (inactive)
IGROV-1
  GI50: > 5000 µM (inactive)
786-0
  GI50: > 5000 µM (inactive)
ACHN
  GI50: 4830 µM (inactive)
K562
  GI50: 4880 µM (inactive)
SK-MEL-28
  GI50: > 5000 µM (inactive)
M19-MEL
  GI50: > 5000 µM (inactive)
HT-29
  GI50: > 5000 µM (inactive)
NCI-H522
  GI50: 3740 µM (inactive)
UACC-62
  GI50: 2170 µM (inactive)
LXFL 529
  GI50: > 5000 µM (inactive)
SF-539
  GI50: > 5000 µM (inactive)
SNB-78
  GI50: > 5000 µM (inactive)
MOLT-4
  GI50: > 5000 µM (inactive)
LOX IMVI
  GI50: > 5000 µM (inactive)
HOP-18
  GI50: 1730 µM (inactive)
TK-10
  GI50: 1570 µM (inactive)
HCT-15
  GI50: > 5000 µM
DMS-273
  GI50: 4040 µM (inactive)
DLD-1
  GI50: > 5000 µM (inactive)
SK-OV-3
  GI50: 4970 µM (inactive)
SK-MEL-5
  GI50: 4970 µM (inactive)
SK-MEL-2
  GI50: 3780 µM (inactive)
NCI-H23
  GI50: > 5000 µM (inactive)
DMS-114
  GI50: > 5000 µM (inactive)
OVCAR-8
  GI50: 2900 µM (inactive)
RPMI-8226
  GI50: 2990 µM (inactive)
SN12C
  GI50: > 5000 µM (inactive)
SF-268
  GI50: > 5000 µM (inactive)
UACC-257
  GI50: > 5000 µM (inactive)

## CN(C)CC1CCC/C1=N\O (centres undefined)
NCI-H460
  GI50: > 100 µM (inactive)
CAKI-1
  GI50: > 100 µM (inactive)
U-251
  GI50: > 100 µM (inactive)
OVCAR-3
  GI50: > 100 µM (inactive)
HCT-116
  GI50: > 100 µM (inactive)
CCRF-CEM
  GI50: > 100 µM (inactive)
SF-295
  GI50: > 100 µM (inactive)
HOP-62
  GI50: > 100 µM (inactive)
SNB-75
  GI50: > 100 µM (inactive)
COLO 205
  GI50: > 100 µM (inactive)
OVCAR-5
  GI50: > 100 µM (inactive)
RXF 393
  GI50: > 100 µM (inactive)
OVCAR-4
  GI50: > 100 µM (inactive)
SW-620
  GI50: > 100 µM (inactive)
KM-20L2
  GI50: > 100 µM (inactive)
HOP-92
  GI50: > 100 µM (inactive)
M14
  GI50: > 100 µM (inactive)
NCI-H226
  GI50: > 100 µM (inactive)
SR
  GI50: > 100 µM (inactive)
UO-31
  GI50: > 100 µM (inactive)
IGROV-1
  GI50: > 100 µM (inactive)
786-0
  GI50: > 100 µM (inactive)
ACHN
  GI50: > 100 µM (inactive)
K562
  GI50: > 100 µM (inactive)
SK-MEL-28
  GI50: > 100 µM (inactive)
M19-MEL
  GI50: > 100 µM (inactive)
HT-29
  GI50: > 100 µM (inactive)
NCI-H522
  GI50: > 100 µM (inactive)
UACC-62
  GI50: > 100 µM (inactive)
LXFL 529
  GI50: > 100 µM (inactive)
SF-539
  GI50: > 100 µM (inactive)
SNB-78
  GI50: > 100 µM (inactive)
MOLT-4
  GI50: > 100 µM (inactive)
LOX IMVI
  GI50: > 100 µM (inactive)
HOP-18
  GI50: > 100 µM (inactive)
TK-10
  GI50: > 100 µM (inactive)
HCC 2998
  GI50: > 100 µM (inactive)
HCT-15
  GI50: > 100 µM
DMS-273
  GI50: > 100 µM (inactive)
DLD-1
  GI50: > 100 µM (inactive)
SK-OV-3
  GI50: > 100 µM (inactive)
A498
  GI50: > 100 µM (inactive)
SK-MEL-5
  GI50: > 100 µM (inactive)
SK-MEL-2
  GI50: > 100 µM (inactive)
NCI-H23
  GI50: > 100 µM (inactive)
OVCAR-8
  GI50: > 100 µM (inactive)
RPMI-8226
  GI50: > 100 µM (inactive)
SN12C
  GI50: > 100 µM (inactive)
SF-268
  GI50: > 100 µM (inactive)
UACC-257
  GI50: > 100 µM (inactive)
